From patent US3948898A, “1,3-Dioxo-2-aminoalkyl-4,4-dimethyl-isoquinolines and salts thereof” (Boehringer Ingelheim GmbH, priority 1973, dated 1976)
Counter-ions that a name gives are not always drawn.

Columns and labels:
[1] = hypotensive activity in anesthetized mongrel dogs (i.v.); assay type: in vivo
Experimental: The test compounds were injected intravenously into the vena saphena in aqueous solution. The arterial bloodpressure was measured before and after administration in the arteria femoralis by means of a […]-pressure transducer and registered on a Grass-polygraph.

[2] = acute toxicity in mice after oral application (LD50); conditions: mouse, in vivo, p.o., observation time 14 days
Experimental: The acute toxicity of the compounds was tested in mice (observation time: 14 days) after oral application. The LD50 was calculated from the percentage of the animals which died within the observation time after application of varying doses [see J. Pharmacol. exper. Therap.

Structure (SMILES)	Decrease of bloodpressure diast. ([1]; 0.5 mg/kg i.v.) [mm Hg]	Decrease of bloodpressure syst. ([1]; 0.5 mg/kg i.v.) [mm Hg]	Duration of activity ([1]; 0.5 mg/kg i.v.) [min]	Decrease of bloodpressure diast. ([1]; 1.0 mg/kg i.v.) [mm Hg]	Decrease of bloodpressure syst. ([1]; 1.0 mg/kg i.v.) [mm Hg]	Duration of activity ([1]; 1.0 mg/kg i.v.) [min]	LD50 at 336 h [2] [mg/kg]	Decrease of bloodpressure diast. ([1]; 0.05 mg/kg i.v.) [mm Hg]	Decrease of bloodpressure syst. ([1]; 0.05 mg/kg i.v.) [mm Hg]	Duration of activity ([1]; 0.05 mg/kg i.v.) [min]	Decrease of bloodpressure diast. ([1]; 0.1 mg/kg i.v.) [mm Hg]	Decrease of bloodpressure syst. ([1]; 0.1 mg/kg i.v.) [mm Hg]	Duration of activity ([1]; 0.1 mg/kg i.v.) [min]
COc1ccc2c(c1)C(=O)N(CCCNCCc1ccc(OC)c(OC)c1)C(=O)C2(C)C [B, 1-[4,4-dimethyl-7-methoxy-1,3-dioxo-(2H,4H)-isoquinolin-2-yl]-3-[2-(3,4-dimethoxy-phenyl)-ethylamine]propane hydrochloride]	-36	-32	35	-40	-36	40	775	–	–	–	–	–	–
COc1ccccc1N1CCN(CCN2C(=O)c3ccccc3C(C)(C)C2=O)CC1.Cl.Cl [A, 1-[4,4-dimethyl-1,3-dioxo-(2H,4H)-isoquinolin-2-yl]-2-[4-(2-methoxy-phenyl)-piperazin-1-yl]-ethane dihydrochloride]	–	–	–	–	–	–	850	-31	-27	53	-34	-33	47
